Results on five compounds are retold here after paper PMC3172808 (Journal of medicinal chemistry, 2011).

One may read the LD50 as the dose at which mortality reaches 50%. A word on the IC50: it is the concentration that inhibits the measured activity by half.

For series [1] the following is noted: rodents; ref [7]–[9]; cited from earlier work.
For series [2] the following is noted: over 24 h; ref [16]; cited from earlier work.
For series [3], the system named is renal carcinoma cell line 786-0. In words: potency toward MDR-1 expressing 786-0 cells with and without verapamil. It counts as cell-based.
The nature of the next series: aqueous solubility. It counts as physicochemical.
Series [4] concerns MDA-MB-231 breast cancer model. As to conditions: continued dosing at 40 mg/kg (½MTD), ref [16], cited from earlier work.
In another series the test system is MCF-7 cancer cells. As to conditions: read-out: MCF-7 IC50; Table 1; ref [17]–[20]; cited from earlier work.
The test system of the next series is A2780cis. In words: potency toward A2780cis. Format: cell-based, human. The settings on record: read-out: drug IC50 A2780cis; cisplatin resistant.
The next series concerns A2780ADR. In words: potency toward A2780ADR. As to conditions: read-out: drug IC50 A2780ADR; adriamycin resistant, MDR-1 overexpression. Format: cell-based, human.

`COc1cc2c(c(OC)c1OC)-c1ccc(OC)c(=O)cc1[C@@H](NC(C)=O)CC2` [Compound 1, colchicine]: the LD50 in series [1] is below 5 mg/kg. As for `COc1cc(C(=O)c2c(C)oc3c(O)c(OC)ccc23)cc(OC)c1OC` [Compound 8, 7-hydroxy-6-methoxy-2-methyl-3-(3,4,5-trimethoxybenzoyl)benzo-[b]furan], in series [2], the “clearance from healthy tissues” value is given as “completely cleared from healthy tissues over 24 h”. Also, the MDR-1 transporter substrate result in series [3] is given as “not a substrate for the MDR-1 transporter”. Further, in the series “aqueous solubility”, the aqueous solubility result is reported as “poor”. Regarding `COc1cc(C(=O)c2c(C)oc3c(OP(=O)([O-])[O-])c(OC)ccc23)cc(OC)c1OC.[Na+].[Na+]` [Compound 9, Disodium (6-Methoxy-2-methyl-3-(3,4,5-trimethoxybenzoyl)benzofuran-7-yl)phosphate], the “complete eradication of tumors, % of the mice” value in series [4] (after 70 days) is 14%. Further, the “tumor growth on continued dosing” value in series [4] is given as “completely suppresses tumor growth”. `COc1ccc(-c2sccc2C(=O)c2cc(OC)c(OC)c(OC)c2)cc1O` [Compound 14]: the IC50 in the series on MCF-7 cancer cells is 300 ± 400 nM.

On to `N.N.[Cl][Pt][Cl]` [cisplatin], for which the IC50 with A2780cis worked out at 5020 nM; with A2780ADR it was 1100 nM.
